Source: US4024277A, “Phosphoro-aminosulfenyl derivatives of benzofuran carbamates” (priority 1975, dated 1977)

Tests used:
plum curculio [1] = experiment: Initial insecticidal activity, plum curculio; type: in vivo, Conotrachelus nenuphar (Herbst); settings: Conotrachelus nenuphar, 48-hour exposure, read-out: % Kill, Plum Curculio
Excerpt: (§1) a. Initial Insecticidal Activity
(§2) In this test, a candidate insecticide, in solution, is applied to either infested or uninfested plants or containers by spraying or dipping. (The preferred test procedure varies with insect species. The dipping method is better than the spraying method, and vice versa, for certain species of insects. Also some species are better adapted to the test by infesting after the chemical treatment rather than before.) Once the tests have been established, a 48-hour exposure period is observed before reading the tests. Insect species included in these tests are Mexican bean beetle (Epilachna varivestis Mulsant), pea aphid [Acyrthosiphon pisum (Harris)], southern armyworm [Spodoptera eridania (Cramer)], twospotted spider mite (Tetranychus urticae Koch), large milkweed bug [Oncopeltus fasciatus (Dallas)], plum curculio [Conotrachelus nenuphar (Herbst)], confused flour beetle (Tribolium confusum Jacquelin duVal) and granary weevil [Sitophilus granarius (Linnaeus)]. Test results are set forth in Table I. A control sample, comprising the solution without the candidate insecticide, is also included.

confused flour beetle = experiment: Initial insecticidal activity, confused flour beetle; type: in vivo, Tribolium confusum Jacquelin duVal; settings: Tribolium confusum, 48-hour exposure, read-out: % Kill, Confused Flour Beetle
Excerpt: as §1, §2

southern armyworm = experiment: Initial insecticidal activity, southern armyworm; type: in vivo, Spodoptera eridania (Cramer); settings: Spodoptera eridania, 48-hour exposure, read-out: % Kill, Southern Armyworm
Excerpt: as §1, §2

twospotted spider mite [2] = experiment: Initial insecticidal activity, twospotted spider mite; type: in vivo, Tetranychus urticae Koch; settings: Tetranychus urticae, 48-hour exposure, read-out: % Kill, Twospotted Spider Mite
Excerpt: as §1, §2

plum curculio [3] = experiment: Seven-day residual insecticidal activity, plum curculio; type: in vivo, Conotrachelus nenuphar (Herbst); settings: Conotrachelus nenuphar, 48-hour exposure, read-out: % Kill, Plum Curculio
Excerpt: (§3) b. Seven-Day Residual Insecticidal Activity
(§4) In this test, a candidate insecticide, in solution, is applied to uninfested plants or containers by dipping or spraying. A seven-day holding period is necessary before infestation. A 48-hour exposure period is observed before evaluation of the tests. The insect species used in this type of test are the same as those listed under initial activity.

pea aphid [4] = experiment: Seven-day residual insecticidal activity, pea aphid; type: in vivo, Acyrthosiphon pisum (Harris); settings: Acyrthosiphon pisum, 48-hour exposure, read-out: % Kill, Pea Aphid
Excerpt: as §3, §4

twospotted spider mite [5] = experiment: Seven-day residual insecticidal activity, twospotted spider mite; type: in vivo, Tetranychus urticae Koch; settings: Tetranychus urticae, 48-hour exposure, read-out: % Kill, Twospotted Spider Mite
Excerpt: as §3, §4

Mexican bean beetle = experiment: Systemic insecticidal activity (soil/water), Mexican bean beetle; type: in vivo, Epilachna varivestis Mulsant; settings: Epilachna varivestis, 48-hour exposure, read-out: % Kill, Mexican Bean Beetle
Protocol: (§5) c. Systemic Insecticidal Acitivity (Soil/Water)
(§6) In this test, a candidate insecticide, in solution, is added to the soil of either uninfested pinto bean seedlings (Phaseolus vulgaris) or uninfested broad bean seedlings (Vicia faba var. Windsor). The plant species used depend on the insect species in the test. Usually, a 72-hour translocation period before infestation is required, followed by a 48-hour exposure period, before evaluation of the tests. The insect species used in the systemic tests are Mexican bean beetle, southern armyworm, pea aphid, and twospotted spider mite.

pea aphid [6] = experiment: Systemic insecticidal activity (soil/water), pea aphid; type: in vivo, Acyrthosiphon pisum (Harris); settings: Acyrthosiphon pisum, 48-hour exposure, read-out: % Kill, Pea Aphid
Protocol: as §5, §6

twospotted spider mite [7] = experiment: Ovicidal activity against the twospotted spider mite; type: in vivo, Tetranychus urticae Koch; settings: Tetranychus urticae, eggs, 7 to 10 days, read-out: % Kill (ovicidal)
Protocol: d. Ovicidal Activity Against the Twospotted Spider Mite
In this test, Pinto bean seedlings are infested with female twospotted spider mites; about 3-4 hours are allowed for egg deposition. Plants are then dipped in TEPP (tetraethylpyrophosphate-commercial emulsifiable concentrate (EC)) solution containing 936 ppm of active ingredient. TEPP kills motile forms on the leaf and promptly degrades without effecting the egg stage. Two to three hours after TEPP treatment the plants are again dipped -- this time into a candidate insecticide solution. The test plants are maintained for 7 to 10 days. Termination of exposure is determined by the time required to attain complete hatch in the untreated check.

house flies = experiment: Level I immersion test, house flies; type: in vivo, Musca domestica Linnaeus; settings: HF, 5 mg/milliliter; for % Knockdown: 10 minutes after immersion; for mortality at 5000 µg/mL: Musca domestica, after 18-24 hours, read-out: % Kill
Protocol: (§7) e. Insecticidal Activity Against House Flies and German Cockroaches
(§8) Compounds of this invention were tested in a Level I test at 5 mg. of active compounds/milliliter of a solution of 40% acetone -- 60% water.
(§9) In this test a group of ten house flies (Musca domestica Linnaeus) were completely immersed in 25 ml. of the insecticidal test solution. After 10 seconds of immersion, the test solution is removed. The house flies are then transferred to holding cages lines with paper toweling. In the case of the house flies, the knockdown counts were recorded 10 minutes after termination of the immersion. The percent kill was recorded after 18-24 hours.

German cockroaches [8] = experiment: Level I immersion test, German cockroaches; type: in vivo, Blattella germanica (Linnaeus); settings: GC (male), 5 mg/milliliter; for mortality at 5000 µg/mL: Blattella germanica, 18-24 hours, read-out: % Kill; for % Knockdown: 30 minutes after immersion
Protocol: as §7, §8, §9
The same Level I test technique was employed using male German cockroaches [Blattella germanica (Linnaeus)]. In this case, the knockdown counts were recorded 30 minutes after the termination of the immersion.

[9] = tested on: female house flies (resistant); experiment: Level II topical test, house flies; type: in vivo, Musca domestica Linnaeus; settings: HF (female, resistant), one microgram topically per insect; for % Knockdown: 10 minutes; for mortality at 0.001 mg: Musca domestica, topical, read-out: % Kill
Protocol: as §7
(§10) In a Level II test the compounds of this invention were tested for insecticidal activity against female house flies (resistant) and male German cockroaches. Ten insects were anesthetized with carbon dioxide and placed in a container for about 2 hours, during which time the insects recovered to normal activity. The container confining the insects is fitted with a plunger which is used to force the insects against a nylon mesh at one end of the container. One microliter of an acetone solution containing one microgram of the candidate insecticide was applied topically to each insect. The plunger was withdrawn and the insects were allowed to move freely about the container. Knockdown counts were recorded 10 minutes after treatment of house flies and 30 minutes after treatment of cockroaches.

German cockroaches [10] = experiment: Level II topical test, German cockroaches; type: in vivo, Blattella germanica (Linnaeus); settings: GC (male), one microgram topically per insect; for mortality at 0.001 mg: Blattella germanica, topical, read-out: % Kill; for % Knockdown: 30 minutes
Protocol: as §7, §10

Compound | mortality at 39 ppm (plum curculio [1]) [%] | mortality at 156 ppm (plum curculio [1]) [%] | mortality at 1250 ppm (plum curculio [1]) [%] | mortality at 39 ppm (confused flour beetle) [%] | mortality at 156 ppm (confused flour beetle) [%] | mortality at 1250 ppm (confused flour beetle) [%] | mortality at 39 ppm (southern armyworm) [%] | mortality at 156 ppm (southern armyworm) [%] | mortality at 1250 ppm (southern armyworm) [%] | mortality at 39 ppm (twospotted spider mite [2]) [%] | mortality at 156 ppm (twospotted spider mite [2]) [%] | mortality at 1250 ppm (twospotted spider mite [2]) [%] | mortality at 39 ppm (plum curculio [3]) [%] | mortality at 156 ppm (plum curculio [3]) [%] | mortality at 1250 ppm (plum curculio [3]) [%] | mortality at 39 ppm (pea aphid [4]) [%] | mortality at 156 ppm (pea aphid [4]) [%] | mortality at 1250 ppm (pea aphid [4]) [%] | mortality at 39 ppm (twospotted spider mite [5]) [%] | mortality at 156 ppm (twospotted spider mite [5]) [%] | also measured
CCCOP(=O)(OCCC)N(CCC)SN(C)C(=O)Oc1cccc2c1OC(C)(C)C2 [3(c)] | 5 | 5 | 77 | 0 | 2 | 55 | 0 | 22 | 100 | 32 | 86 | 100 | 5 | 10 | 95 | 0 | 0 | 73 | < 1 | 0 | mortality at 1250 ppm (twospotted spider mite [5]): 5%; mortality at 10 ppm (Mexican bean beetle; 10 ppm): 44%; mortality at 39 ppm (Mexican bean beetle): 44%; mortality at 156 ppm (Mexican bean beetle): 94%; mortality at 10 ppm (pea aphid [6]; 10 ppm): 0%; mortality at 39 ppm (pea aphid [6]): 0%; mortality at 156 ppm (pea aphid [6]): 79%; mortality at 156 ppm (twospotted spider mite [7]): 0%; mortality at 1250 ppm (twospotted spider mite [7]): 70%; % Knockdown (house flies): 100%; mortality at 5000 µg/mL (house flies): 100%; mortality at 5000 µg/mL (German cockroaches [8]): 100%; % Knockdown (German cockroaches [8]): 100%; % Knockdown [9]: 0%; mortality at 0.001 mg [9]: 40%; mortality at 0.001 mg (German cockroaches [10]): 0%; % Knockdown (German cockroaches [10]): 0%
CC(C)OP(=O)(OC(C)C)N(C)SN(C)C(=O)Oc1cccc2c1OC(C)(C)C2 [6(c), 2,3-Dihydro-2,2-dimethyl-7-benzofuranyl [(N-diisopropoxyphosphinyl) (N-methyl)aminosulfenyl][methyl]carbamate] | 0 | 45 | 100 | 0 | 0 | 18 | 6 | 73 | 100 | 6 | 23 | 100 | 0 | 0 | 100 | 0 | 0 | 5 | 0 | 1 | mortality at 1250 ppm (twospotted spider mite [5]): 0%; mortality at 39 ppm (Mexican bean beetle): 100%; mortality at 156 ppm (Mexican bean beetle): 100%; mortality at 39 ppm (pea aphid [6]): 100%; mortality at 156 ppm (pea aphid [6]): 100%; mortality at 156 ppm (twospotted spider mite [7]): 0%; mortality at 1250 ppm (twospotted spider mite [7]): 91%; % Knockdown (house flies): 100%; mortality at 5000 µg/mL (house flies): 100%; mortality at 5000 µg/mL (German cockroaches [8]): 100%; % Knockdown (German cockroaches [8]): 100%; % Knockdown [9]: 0%; mortality at 0.001 mg [9]: 27%; mortality at 0.001 mg (German cockroaches [10]): 0%; % Knockdown (German cockroaches [10]): 0%
CCN(SN(C)C(=O)Oc1cccc2c1OC(C)(C)C2)P(=O)(OC)OC [5(c), 2,3-dihydro-2,2-dimethyl-7-benzofuranyl [(N-dimethoxyphosphinyl) (N-ethyl)aminosulfenyl][methyl]carbamate] | 50 | 85 | 100 | 0 | 0 | 78 | 0 | 69 | 100 | 6 | 47 | 100 | 0 | 0 | 80 | 0 | 0 | 62 | 2 | 0 | mortality at 1250 ppm (twospotted spider mite [5]): 2%; mortality at 39 ppm (Mexican bean beetle): 100%; mortality at 156 ppm (Mexican bean beetle): 100%; mortality at 39 ppm (pea aphid [6]): 0%; mortality at 156 ppm (pea aphid [6]): 100%; mortality at 156 ppm (twospotted spider mite [7]): 0%; mortality at 1250 ppm (twospotted spider mite [7]): 38%; % Knockdown (house flies): 100%; mortality at 5000 µg/mL (house flies): 100%; mortality at 5000 µg/mL (German cockroaches [8]): 100%; % Knockdown (German cockroaches [8]): 100%; % Knockdown [9]: 0%; mortality at 0.001 mg [9]: 38%; mortality at 0.001 mg (German cockroaches [10]): 0%; % Knockdown (German cockroaches [10]): 0%
CCCN(SN(C)C(=O)Oc1cccc2c1OC(C)(C)C2)P(=O)(Oc1ccccc1)Oc1ccccc1 [7(c)] | 20 | 50 | 65 | 0 | 0 | 0 | 0 | 29 | 31 | 1 | 6 | 5 | 5 | 0 | 0 | 0 | 0 | 0 | 1 | 0 | mortality at 1250 ppm (twospotted spider mite [5]): 0%; mortality at 39 ppm (Mexican bean beetle): 45%; mortality at 156 ppm (Mexican bean beetle): 100%; mortality at 39 ppm (pea aphid [6]): 0%; mortality at 156 ppm (pea aphid [6]): 0%; mortality at 156 ppm (twospotted spider mite [7]): 0%; mortality at 1250 ppm (twospotted spider mite [7]): 0%; % Knockdown (house flies): 40%; mortality at 5000 µg/mL (house flies): 0%; mortality at 5000 µg/mL (German cockroaches [8]): 0%; % Knockdown (German cockroaches [8]): 0%
